Reference: patent US10981894B2, “Melanocortin subtype-2 receptor (MC2R) antagonists and uses thereof” (Crinetics Pharmaceuticals, Inc., priority 2018, dated 2021)

Biological target: hMC2 receptor (Homo sapiens, UniProt Q01718)
Experiment: hMC2 membrane binding assay ([125I]ACTH (1-39) Tyr23, SPA)
Parameters: scale not given here
Conditions: crude hMC2R membranes from CRE-bla-CHO-K1 cells expressing hMC2 receptor and hMRAP; [125I]ACTH (1-39) Tyr23 0.2 nM; 1.5 hours at room temperature; read-out: MC2R binding potency
Method in brief: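 CRE-bla-CHO-K1 membranes co-expressing hMC2 receptor and hMRAP, preincubated with WGA PVT SPA beads in pH 7.4 HEPES/MgCl2/CaCl2/0.2% BSA buffer. Compounds (typically 0–10,000 nM final) compete with 0.2 nM [125I]ACTH(1-39) Tyr23 for 1.5 h at room temperature. SPA counts give Ki by non-linear regression.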

Chain of hMC2 receptor (Q01718 whole entry): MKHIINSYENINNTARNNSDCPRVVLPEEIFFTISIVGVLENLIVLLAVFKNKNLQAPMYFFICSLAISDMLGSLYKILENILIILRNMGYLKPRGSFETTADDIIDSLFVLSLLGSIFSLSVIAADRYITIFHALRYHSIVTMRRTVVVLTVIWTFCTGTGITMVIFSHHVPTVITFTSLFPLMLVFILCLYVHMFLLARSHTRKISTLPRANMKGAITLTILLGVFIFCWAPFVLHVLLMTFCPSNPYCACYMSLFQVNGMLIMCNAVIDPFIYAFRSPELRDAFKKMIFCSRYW
Chain of hMC2 receptor (Q8TCY5 whole entry partner): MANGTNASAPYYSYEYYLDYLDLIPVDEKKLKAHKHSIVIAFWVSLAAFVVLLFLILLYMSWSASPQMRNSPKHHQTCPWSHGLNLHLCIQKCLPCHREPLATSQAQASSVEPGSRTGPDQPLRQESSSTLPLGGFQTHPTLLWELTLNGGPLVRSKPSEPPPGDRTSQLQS

| Ki [nM] | SMILES |
| --- | --- |
| < 10 | CCOc1ncccc1-c1ccc(N2CCN(C(=O)c3ccc(C(F)(F)F)s3)C[C@H]2CC)c(C(=O)N[C@@H]2CCNC2)n1 [Compound 1-368, 2′-ethoxy-5-[(2R)-2-ethyl-4-[5-(trifluoromethyl)thiophene-2-carbonyl]piperazin-1-yl]-N-[(3R)-pyrrolidin-3-yl]-[2,3′-bipyridine]-6-carboxamide] |
| < 10 | CCOc1ncccc1-c1ccc(N2CCN(C(=O)c3ccc(Cl)cc3C(F)(F)F)C[C@H]2CC)c(C(=O)NCC2=NCCN2C)n1 [Compound 1-227, 5-[(2R)-4-[4-chloro-2-(trifluoromethyl)benzoyl]-2-ethylpiperazin-1-yl]-2′-ethoxy-N-[(1-methyl-4,5-dihydro-1H-imidazol-2-yl)methyl]-[2,3′-bipyridine]-6-carboxamide] |
| < 10 | CCOc1ccccc1-c1ccc(N2CCN(C(=O)c3ccc(F)cc3C(F)F)C[C@H]2CC)c(C(=O)N[C@@H]2CCN(C)C2)n1 [Compound 1-293, 3-[(2R)-4-[2-(difluoromethyl)-4-fluorobenzoyl]-2-ethylpiperazin-1-yl]-6-(2-ethoxyphenyl)-N-[(3R)-1-methylpyrrolidin-3-yl]pyridine-2-carboxamide] |
| < 10 | CCOc1ncccc1-c1ccc(N2CCN(C(=O)c3ccc(Cl)cc3C(F)(F)F)C[C@H]2CC)c(C(=O)NC2CNC2)n1 [Compound 1-211, N-(azetidin-3-yl)-5-[(2R)-4-[4-chloro-2-(trifluoromethyl)benzoyl]-2-ethylpiperazin-1-yl]-2′-ethoxy-[2,3′-bipyridine]-6-carboxamide] |
| < 10 | CCOc1ncccc1-c1ccc(N2CCN(C(=O)N3CCC[C@H]3c3ccccc3)C[C@H]2CC)c(C(=O)N[C@@H]2CCNC2)n1 [Compound 1-345, 2′-ethoxy-5-[(2R)-2-ethyl-4-[(2S)-2-phenylpyrrolidine-1-carbonyl]piperazin-1-yl]-N-[(3R)-pyrrolidin-3-yl]-[2,3′-bipyridine]-6-carboxamide] |
| < 10 | CCOc1ncccc1-c1ccc(N2CCN(C(=O)c3ccc(OC)nc3C(F)(F)F)C[C@H]2CC)c(C(=O)N[C@H]2CNC[C@H]2F)n1 [Compound 1-291, 2′-ethoxy-5-[(2R)-2-ethyl-4-[6-methoxy-2-(trifluoromethyl)pyridine-3-carbonyl]piperazin-1-yl]-N-[(3S,4R)-4-fluoropyrrolidin-3-yl]-[2,3′-bipyridine]-6-carboxamide] |
| < 10 | CCOc1ccc(C(=O)N2CCN(c3ccc(-c4cccnc4OC)nc3C(=O)NC3CN(C)C3)[C@H](CC)C2)c(C(F)(F)F)n1 [Compound 1-247, 5-[(2R)-4-[6-ethoxy-2-(trifluoromethyl)pyridine-3-carbonyl]-2-ethylpiperazin-1-yl]-2′-methoxy-N-(1-methylazetidin-3-yl)-[2,3′-bipyridine]-6-carboxamide] |
| < 10 | CCOc1ncccc1-c1ccc(N2CCN(C(=O)c3ccc(Cl)cc3Cl)C[C@H]2CC)c(C(=O)NCC2=NCCN2)c1F [Compound 1-178, 6-[(2R)-4-(2,4-dichlorobenzoyl)-2-ethylpiperazin-1-yl]-N-[(4,5-dihydro-1H-imidazol-2-yl)methyl]-3-(2-ethoxypyridin-3-yl)-2-fluorobenzamide] |
| < 10 | CCOc1ccc(C(=O)N2CCN(c3ccc(-c4cccnc4OCC)nc3CN)[C@H](CC)C2)c(C(F)(F)F)c1 [Compound 2-25, 1-{2′-ethoxy-5-[(2R)-4-[4-ethoxy-2-(trifluoromethyl)benzoyl]-2-ethylpiperazin-1-yl]-[2,3′-bipyridin]-6-yl}methanamine] |
| < 10 | CCOc1ccccc1-c1ccc(N2CCN(C(=O)[C@H]3CC[C@@H](C(F)(F)F)CC3)C[C@H]2CC)c(C(=O)N[C@@H]2CCNC2)n1 [Compound 1-335, 6-(2-ethoxyphenyl)-3-[(2R)-2-ethyl-4-[cis-4-(trifluoromethyl)cyclohexanecarbonyl]piperazin-1-yl]-N-[(3R)-pyrrolidin-3-yl]pyridine-2-carboxamide] |
| < 10 | CCOc1ncccc1-c1ccc(N2CCN(C(=O)N3CCC[C@H]3C(C)(C)F)C[C@H]2CC)c(C(=O)N[C@@H]2CCN(C)C2)n1 [Compound 1-413, 2′-ethoxy-5-[(2R)-2-ethyl-4-[(2S)-2-(2-fluoropropan-2-yl)pyrrolidine-1-carbonyl]piperazin-1-yl]-N-[(3R)-1-methylpyrrolidin-3-yl]-[2,3′-bipyridine]-6-carboxamide] |
| < 10 | CCOc1ncccc1-c1ccc(N2CCN(C(=O)c3ccc(Cl)cc3C(F)(F)F)C[C@H]2CC)c(C(=O)NCCN(C)C)c1 [Compound 1-47, 2-[(2R)-4-[4-chloro-2-(trifluoromethyl)benzoyl]-2-ethylpiperazin-1-yl]-N-[2-(dimethylamino)ethyl]-5-(2-ethoxypyridin-3-yl)benzamide] |
| < 10 | CCOc1ncccc1-c1ccc(N2CCN(C(=O)c3ccc(Cl)cc3N3CC[C@H](CN)C3)C[C@H]2CC)c(C(=O)NCCN)c1 [Compound 1-40, N-(2-aminoethyl)-2-[(2R)-4-{2-[(3R)-3-(aminomethyl)pyrrolidin-1-yl]-4-chlorobenzoyl}-2-ethylpiperazin-1-yl]-5-(2-ethoxypyridin-3-yl)benzamide] |
| < 10 | CCOc1ncccc1-c1ccc(N2CCN(C(=O)c3ccc(Cl)cc3C(F)(F)F)C[C@H]2CC)c(CN)n1 [Compound 2-13, 1-{5-[(2R)-4-[4-chloro-2-(trifluoromethyl)benzoyl]-2-ethylpiperazin-1-yl]-2′-ethoxy-[2,3′-bipyridin]-6-yl}methanamine] |
| < 10 | CCOc1ccccc1-c1ccc(N2CCN(C(=O)c3ccc(Cl)cc3C(F)(F)F)C[C@H]2CC)c(C(=O)NCCNC)n1 [Compound 1-208, 3-[(2R)-4-[4-chloro-2-(trifluoromethyl)benzoyl]-2-ethylpiperazin-1-yl]-6-(2-ethoxyphenyl)-N-[2-(methylamino)ethyl]pyridine-2-carboxamide] |
| < 10 | CCOc1ncccc1-c1ccc(N2CCN(C(=O)c3ccc(F)cc3C(F)(F)F)C[C@H]2CC)c(C(=O)N[C@@H]2CCNC2)n1 [Compound 1-266, 2′-ethoxy-5-[(2R)-2-ethyl-4-[4-fluoro-2-(trifluoromethyl)benzoyl]piperazin-1-yl]-N-[(3R)-pyrrolidin-3-yl]-[2,3′-bipyridine]-6-carboxamide] |
| < 10 | CCOc1ncccc1-c1ccc(N2CCN(C(=O)C3(C(F)(F)F)CCCC3)C[C@H]2CC)c(C(=O)NC[C@H]2CCCN2)n1 [Compound 1-324, 2′-ethoxy-5-[(2R)-2-ethyl-4-[1-(trifluoromethyl)cyclopentanecarbonyl]piperazin-1-yl]-N-{[(2R)-pyrrolidin-2-yl]methyl}-[2,3′-bipyridine]-6-carboxamide] |
| < 10 | CCOc1ncccc1-c1ccc(N2CCN(C(=O)O[C@@H](C(C)(C)C)C(F)(F)F)C[C@H]2CC)c(C(=O)N[C@@H]2CCN(C)C2)n1 (single isomer, unassigned) [Compound 1-407] |
| < 10 | CCOc1ncccc1-c1ccc(N2CCN(C(=O)OC(C(C)(C)C)C(F)(F)F)C[C@H]2CC)c(C(=O)N[C@@H]2CCN(C)C2)n1 (stereo partly drawn) [Compound 1-376, 1,1,1-trifluoro-3,3-dimethylbutan-2-yl (3R)-4-(2′-ethoxy-6-{[(3R)-1-methylpyrrolidin-3-yl]carbamoyl}-[2,3′-bipyridin]-5-yl)-3-ethylpiperazine-1-carboxylate] |
| < 10 | CCOc1ncccc1-c1ccc(N2CCN(C(=O)c3ccc(Cl)cc3C(F)(F)F)C[C@H]2CC)c(C(=O)N[C@H]2CCNC2)c1 [Compound 1-92, 2-[(2R)-4-[4-chloro-2-(trifluoromethyl)benzoyl]-2-ethylpiperazin-1-yl]-5-(2-ethoxypyridin-3-yl)-N-[(3S)-pyrrolidin-3-yl]benzamide] |
| < 10 | CC[C@@H]1CN(C(=O)N2CCC[C@H]2C(C)(C)C)CCN1c1ccc(-c2ccccc2OC)nc1C(=O)N[C@@H]1CCNC1 [Compound 1-315, 3-[(2R)-4-[(2S)-2-tert-butylpyrrolidine-1-carbonyl]-2-ethylpiperazin-1-yl]-6-(2-methoxyphenyl)-N-[(3R)-pyrrolidin-3-yl]pyridine-2-carboxamide] |
| < 10 | CCOc1ccccc1-c1ccc(N2CCN(C(=O)n3ccc4cccc(C#N)c43)C[C@H]2CC)c(C(=O)N[C@@H]2CCN(C)C2)n1 [Compound 1-432, 3-[(2R)-4-(7-cyano-1H-indole-1-carbonyl)-2-ethylpiperazin-1-yl]-6-(2-ethoxyphenyl)-N-[(3R)-1-methylpyrrolidin-3-yl]pyridine-2-carboxamide] |
| < 10 | CCOc1ncccc1-c1ccc(N2CCN(C(=O)n3ccc4cccc(Cl)c43)C[C@H]2CC)c(C(=O)N[C@@H]2CCN(C)C2)n1 [Compound 1-428, 5-[(2R)-4-(7-chloro-1H-indole-1-carbonyl)-2-ethylpiperazin-1-yl]-2′-ethoxy-N-[(3R)-1-methylpyrrolidin-3-yl]-[2,3′-bipyridine]-6-carboxamide] |
| < 10 | CCOc1ncccc1-c1ccc(N2CCN(C(=O)c3ccc(F)cc3N3CC(N)C3)C[C@H]2CC)c(C(=O)NCCN(C)C)c1 [Compound 1-148, 2-[(2R)-4-[2-(3-aminoazetidin-1-yl)-4-fluorobenzoyl]-2-ethylpiperazin-1-yl]-N-[2-(dimethylamino)ethyl]-5-(2-ethoxypyridin-3-yl)benzamide] |
| < 10 | CCOc1ccccc1-c1ccc(N2CCN(C(=O)c3ccccc3-c3ccc(CN)c(F)c3)C[C@H]2CC)c(C(=O)NCCN)c1 [Compound 1-26, N-(2-aminoethyl)-4-[(2R)-4-[4′-(aminomethyl)-3′-fluoro-[1,1′-biphenyl]-2-carbonyl]-2-ethylpiperazin-1-yl]-2′-ethoxy-[1,1′-biphenyl]-3-carboxamide] |
| < 10 | CCOc1ccccc1-c1ccc(N2CCN(C(=O)c3ccc(Cl)cc3C(F)(F)F)C[C@H]2CC)c(C(=O)NC2CN(C)C2)n1 [Compound 1-221, 3-[(2R)-4-[4-chloro-2-(trifluoromethyl)benzoyl]-2-ethylpiperazin-1-yl]-6-(2-ethoxyphenyl)-N-(1-methylazetidin-3-yl)pyridine-2-carboxamide] |
